In PubChem BioAssay (NCI):
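48-hour exposure; five concentrations; linearly interpolated endpoints. TGI: total growth inhibition.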

Experiments:
Assay in all cases: NCI anticancer screen, dose series, 48 h
[1] = system: CCRF-CEM leukemia
[2] = system: NCI-H23 lung
[3] = system: ACHN renal
[4] = system: HL-60(TB) leukemia
[5] = system: HOP-62 NSCLC
[6] = system: HCT-116 colon
[7] = system: SK-MEL-28 melanoma
[8] = system: OVCAR-5 ovarian
[9] = system: SF-539 CNS
[10] = system: U251 CNS
[11] = system: K-562 leukemia
[12] = system: SW-620 colon
[13] = system: UACC-62 melanoma
[14] = system: COLO 205 colon
[15] = system: SR leukemia
[16] = system: HCC-2998 colon
[17] = system: SF-295 CNS
[18] = system: M14 melanoma
[19] = system: SNB-19 CNS
[20] = system: HOP-92 NSCLC
[21] = system: OVCAR-3 ovarian
[22] = system: T-47D breast
[23] = system: NCI-H226 lung
[24] = system: NCI/ADR-RES ovarian
[25] = system: SK-MEL-2 melanoma
[26] = system: PC-3 prostate
[27] = system: CAKI-1 renal
[28] = system: MCF7 breast
[29] = system: OVCAR-8 ovarian
[30] = system: IGROV1 ovarian
[31] = system: A498 renal
[32] = system: MOLT-4 leukemia
[33] = system: BT-549 breast
[34] = system: SK-OV-3 ovarian
[35] = system: A549 NSCLC
[36] = system: RPMI-8226 leukemia
[37] = system: SK-MEL-5 melanoma
[38] = system: 786-0 renal
[39] = system: SN12C renal
[40] = system: NCI-H460 lung
[41] = system: HCT-15 colon
[42] = system: MDA-MB-435
[43] = system: LOX IMVI melanoma
[44] = system: KM12 colon
[45] = system: MDA-N
[46] = system: SNB-75 CNS
[47] = system: DU-145 prostate
[48] = system: EKVX NSCLC
[49] = system: UACC-257 melanoma
[50] = system: UO-31 renal
[51] = system: MDA-MB-231 breast
[52] = system: TK-10 renal
[53] = system: MALME-3M melanoma
[54] = system: SF-268 CNS
[55] = system: OVCAR-4 ovarian
[56] = system: HS 578T breast
[57] = system: RXF 393 renal
[58] = system: HT29 colon

With `N#C/C(C(=O)Nc1ccc(Cl)cc1)=C(/N)N1CCCCC1` the TGI [1] was greater than 100 µM, the TGI [2] was greater than 100 µM and the TGI [3] was greater than 100 µM. It also gave a TGI [4] greater than 100 µM, a TGI [5] greater than 100 µM and a TGI [6] greater than 100 µM. For the same compound, the TGI [7] was greater than 100 µM, the TGI [8] was greater than 100 µM and the TGI [9] was greater than 100 µM. For the same compound, the TGI [10] was greater than 100 µM, the TGI [11] was greater than 100 µM and the TGI [12] was greater than 100 µM. It also gave a TGI [13] greater than 100 µM, a TGI [14] greater than 100 µM and a TGI [15] greater than 100 µM. For the same compound, the TGI [16] was greater than 100 µM, the TGI [17] was greater than 100 µM and the TGI [18] was greater than 100 µM. It also gave a TGI [19] greater than 100 µM, a TGI [20] greater than 100 µM and a TGI [21] greater than 100 µM. The TGI [22] was greater than 100 µM, the TGI [23] was greater than 100 µM and the TGI [24] was greater than 100 µM. The TGI [25] was greater than 100 µM, the TGI [26] was greater than 100 µM and the TGI [27] was greater than 100 µM. It also gave a TGI [28] greater than 100 µM, a TGI [29] greater than 100 µM and a TGI [30] greater than 100 µM. It also gave a TGI [31] greater than 100 µM, a TGI [32] greater than 100 µM and a TGI [33] greater than 100 µM. It also gave a TGI [34] greater than 100 µM, a TGI [35] greater than 100 µM and a TGI [36] greater than 100 µM. The TGI [37] was greater than 100 µM, the TGI [38] was greater than 100 µM and the TGI [39] was greater than 100 µM. The TGI [40] was greater than 100 µM, the TGI [41] was greater than 100 µM and the TGI [42] was greater than 100 µM. For the same compound, the TGI [43] was greater than 100 µM, the TGI [44] was greater than 100 µM and the TGI [45] was greater than 100 µM. It also gave a TGI [46] of 72.3 µM, a TGI [47] greater than 100 µM and a TGI [48] greater than 100 µM. The TGI [49] was greater than 100 µM and the TGI [50] was greater than 100 µM.
`CCOC(=O)[C@@]12C[C@](/C=C/OC)(O[Si](C)(C)C)[C@@]13c1cc(OC)c(OC)cc1CCN3C(=O)C2O` (stereo not given in full) showed a TGI [1] greater than 100 µM, a TGI [2] greater than 100 µM and a TGI [3] greater than 100 µM. It also gave a TGI [5] greater than 100 µM, a TGI [6] greater than 100 µM and a TGI [7] greater than 100 µM. For the same compound, the TGI [8] was greater than 100 µM, the TGI [9] was greater than 100 µM and the TGI [10] was greater than 100 µM. It also gave a TGI [51] greater than 100 µM, a TGI [11] greater than 100 µM and a TGI [12] greater than 100 µM. For the same compound, the TGI [52] was greater than 100 µM, the TGI [13] was greater than 100 µM and the TGI [14] was greater than 100 µM. It also gave a TGI [53] greater than 100 µM, a TGI [15] greater than 100 µM and a TGI [17] greater than 100 µM. For the same compound, the TGI [18] was greater than 100 µM, the TGI [19] was greater than 100 µM and the TGI [20] was greater than 100 µM. It also gave a TGI [21] greater than 100 µM, a TGI [22] greater than 100 µM and a TGI [23] greater than 100 µM. It also gave a TGI [24] greater than 100 µM, a TGI [54] greater than 100 µM and a TGI [25] greater than 100 µM. The TGI [26] was greater than 100 µM, the TGI [27] was greater than 100 µM and the TGI [28] was greater than 100 µM. It also gave a TGI [29] greater than 100 µM, a TGI [30] greater than 100 µM and a TGI [31] greater than 100 µM. It also gave a TGI [32] greater than 100 µM, a TGI [55] greater than 100 µM and a TGI [56] greater than 100 µM. The TGI [34] was greater than 100 µM, the TGI [35] was greater than 100 µM and the TGI [36] was greater than 100 µM. For the same compound, the TGI [37] was greater than 100 µM, the TGI [38] was greater than 100 µM and the TGI [39] was greater than 100 µM. For the same compound, the TGI [40] was greater than 100 µM, the TGI [41] was greater than 100 µM and the TGI [42] was greater than 100 µM. It also gave a TGI [43] greater than 100 µM, a TGI [44] greater than 100 µM and a TGI [57] greater than 100 µM. For the same compound, the TGI [45] was greater than 100 µM, the TGI [46] was greater than 100 µM and the TGI [47] was greater than 100 µM. It also gave a TGI [48] greater than 100 µM, a TGI [58] greater than 100 µM and a TGI [49] greater than 100 µM. It also gave a TGI [50] greater than 100 µM.
